Assay results: a melting point compilation (Tetko et al.; mined from patent text by program, amines drawn as free bases though some values may be those of a salt)

| SMILES | melting point |
| --- | --- |
| COC(=O)C1Cc2c([nH]c3ccccc23)C(c2ccc(Cl)c(Cl)c2)N1 (stereo not given) | 90 to 92 °C |
| CCOC(=O)COc1ccc2c(c1)CCC2=O | 59 to 61 °C |
| O=C(CCCCCNC(=O)Cc1ccc(-c2ccccc2)cc1)NO | 226 to 227 °C |
| CCOC(=O)C(C(=O)OCC)C(Cc1cc(C(F)(F)F)ccc1N)c1ccccc1Cl (stereo not given) | 74 to 76 °C |
| CCOC(=O)C(=O)CC(=O)/C=C/c1ccc(Cl)cc1 | 117 to 118 °C |
| O=C1c2ccccc2C(=O)N1CCC(=O)N(c1ccccc1)c1ccccc1 | 140 °C |
| CC1(C)CCCC(N=[N+]=[N-])C(=O)N1 (stereo not given) | 98 to 100 °C |
| CCCCc1nc(Cl)c(COC)n1Cc1ccc(-c2ccccc2NS(=O)(=O)C(F)(F)F)cc1 | 148 to 150 °C |
| COC(=O)c1c(C=O)cccc1Oc1nc(OC)cc(OC)n1 | 91 to 93 °C |
| CCOC(=O)N1C(NC(C)C)=NS(=O)(=O)c2c1cnn2C | 141 to 145 °C |
| COC(=O)c1sc(-c2ccc(OC)cc2)cc1NC(C)=O | 148 to 149 °C |
| CC(C)(C)c1ccc(Sc2ccsc2CN(O)C(N)=O)cc1 | 144 to 146 °C |
| CC(C)(C(=O)Nc1ccc(Cl)cc1)/C(F)=C/Br | 131 to 133 °C |
| COCCN1CCN(c2c(F)cc(N3C[C@H](CNC(C)=O)OC3=O)cc2F)CC1 | 162 to 164 °C |
| CC(C)(C)c1noc(NS(=O)(=O)c2ccccc2)c1Br | 108 to 109 °C |
| CCn1c2cc(C)ccc2c2ccc3ccccc3c21 | 104 to 105 °C |
| O=C(CCCCl)CN1C(=O)c2ccccc2C1=O | 133 to 134 °C |
| CN(C)C=Cc1cc(Cl)c(Cl)cc1[N+](=O)[O-] | 171 to 174 °C |
| Cc1ccc(Oc2ccc(-c3ccn(CC4CC4)c(=O)c3Cl)cc2F)c(C)n1 | 143 °C |
| C=Cc1cc(S(=O)(=O)c2ccc(N)cc2)cc(N2CCCC2)n1 | 181 to 182 °C |
| COCCCn1c2cc(Cl)ccc2n2c(C)nnc12 | 136 °C |
| Cc1ccnc(C)c1NC(=O)NCCCl | 122 to 124 °C |
| O=C1OC(=O)C2CC(=C(F)F)CC12 (stereo not given) | 140 to 145 °C |
| O=c1ccc(-c2c(-c3ccccc3)nn3ccccc23)nn1[C@H]1CCNC1 | 144 to 146 °C |
| CCCn1c(=O)c(C#N)c(Cl)c2ccccc21 | 203 to 205 °C |
| CC(C)(C)OC(=O)[C@@H]1CNC(=O)N1C(=O)OCc1ccccc1 | 138 to 139 °C |
| O=C(Nc1cccc2c(NN3C(=O)CCC3=O)ccnc12)c1c(Cl)cccc1Cl | 170 to 173 °C |

| SMILES | melting point |
| --- | --- |
| Cc1cccc(C)c1NC(=O)CN1CCCC1=O | 153 to 154 °C |
| CC1CC(C)CC2(C1)OC(N)=NC2=O (stereo not given) | 276 to 281 °C |
| CC(C)(C)C(=O)Cn1ccnc1 | 20 °C |
| O=C1C(=O)c2ccccc2C2=C1SCC1(CCN(CC(O)COc3ccc4cc(Br)ccc4c3)CC1)O2 (stereo not given) | 183 to 184 °C |
| O=C(Cc1ccccc1F)c1ccc(I)cc1 | 112 to 114 °C |
| COc1ccc(N2CCOCC2)cc1NC(=S)c1nc2ccccc2[nH]1 | 236 to 237 °C |
| Cn1c2ccccc2c(=O)n2nc(C#N)cc12 | 307 to 310 °C |
| CCCCc1oc2ccccc2c1C(=O)N(Cc1ccccc1)Cc1ccc2c(Br)c(OCC#N)ccc2c1 | 105 to 110 °C |
| COC(=O)C1CCCn2c(=O)[nH]c(=O)n21 (stereo not given) | 215 to 216 °C |
| CCCCCCCCCCCCc1cc(C=O)on1 | 53 to 54 °C |
| Cc1oc(-c2ccccc2)nc1CCOc1ccc(CC(C)(C(=O)O)n2ccc(Br)c2)cc1 (stereo not given) | 158 to 159 °C |
| Cc1nc(N(C)C)sc1C(=O)c1ccc(Cl)c([N+](=O)[O-])c1 | 165 to 169 °C |
| CC(C)(OCc1cc2cc(C(F)(F)F)ccc2n1S(=O)(=O)c1ccc2ncsc2c1)C(=O)O | 98 to 100 °C |
| CC(C)(C)C(=O)SC1CCN(C(C(=O)C2CC2)c2ccccc2F)CC1 (stereo not given) | 88 to 89 °C |
| Clc1ccc(N=c2ccn3ccccc3c2)cc1 | 183 to 184 °C |
| CCOC(=O)c1c(C)nc2sc3c(c2c1OS(=O)(=O)C(F)(F)F)CCC1(C3)OCCO1 | 133 to 134 °C |
| CNCC(O)c1ccc(Br)cc1 (stereo not given) | 91.5 to 93.7 °C |
| Cc1oc(-c2ccncc2)nc1COc1ccc(Cn2cc(CCC(=O)O)c(-c3ccccc3)n2)cc1 | 154 to 155 °C |
| Cc1ccnc(Cl)c1C#N | 109 to 110 °C |
| CCOC(=O)C(=CNc1sc(-c2ccc(OC)cc2)c(C)c1C(=O)O)C(=O)OCC | 184 to 187 °C |
| O=C(NCCO)c1cncc(-c2cccc3nn(Cc4cccc(C(F)(F)F)c4)cc23)c1 | 185 to 186 °C |
| Cc1nn(C)c(=O)c(-n2nc(-c3ccc(C(F)(F)F)cc3)cc2C)c1O | 191 to 194 °C |
| Cn1c(CC#N)ccc1C(=O)Cl | 78 to 80 °C |
| C=CC1(O)CN2CCC1CC2 (stereo not given) | 76 to 80 °C |
| COC(=O)c1[nH]nc2c1C(C)Cc1cc(OC)ccc1-2 (stereo not given) | 163 °C |
| Cc1ccc2cc(C(=O)O)oc2c1C | 235 to 237 °C |
| O=Cc1c2ccccc2cc2c(Cl)cccc12 | 129 to 131 °C |

| SMILES | melting point |
| --- | --- |
| O=C(NC[C@H]1CN(c2ccc(N3CCC4(CC3)OCCO4)c(F)c2)C(=O)O1)C(Cl)Cl | 175 to 178 °C |
| CCOC(=O)c1c(O)c2ccc(C)nc2[nH]c1=O | 190 to 193 °C |
| CCc1nc(OC)c(NC(=O)N2CCN(c3cccc(F)c3)CC2)cc1C(=O)Nc1cc(CO)cc(Nc2c3ccccc3nc3ccccc23)c1 | 186 to 188 °C |
| CC(=O)c1cnc2c(n1)CCCC2 | 42 to 45 °C |
| CCc1c(Sc2cc(C)cc(C)c2)[nH]c(=O)[nH]c1=O | 224 to 225 °C |
| CCCN1CCC(C(=O)Nc2ccc(CN(C)C3CCOCC3)cc2)=Cc2cc(-c3ccc(N4CCOCC4)cc3)ccc21 | 114 to 118 °C |
| Oc1ccc2nc(-c3ccc(O)c(F)c3)cc(C#Cc3ccccc3)c2c1 | 125 to 129 °C |
| COc1cccc2c1nc(-c1c(F)cccc1F)n2Cc1c(F)cccc1F | 154 to 155 °C |
| CCCCCCCCOc1cc(OC)cc(N)c1OCOC | 59 °C |
| COC(=O)c1cccc2nc(OC)n(Cc3ccc(-c4ccccc4C#N)cc3)c12 | 149 to 150 °C |
| Fc1nc(Cl)c2cc[nH]c2n1 | 180 °C |
| O=C1c2c(Cl)cccc2-c2n[nH]c3cccc1c23 | 310 °C |
| Cc1cc(C)c(CC(=O)NNC(=O)OC(C)(C)C)c(C)c1 | 138 to 140 °C |
| CS(=O)(=O)c1ccc(N2CC(O)(C(F)(F)F)N=C2c2ccccn2)cc1 (stereo not given) | 195 to 198 °C |
| CSc1cc2c(cc1C(F)(F)F)N(C(=O)Nc1cccc(C(=O)NCCN3CCCC3)c1)CC2 | 91 to 93 °C |
| CNCc1ccc2cc(O)ccc2c1 | 168 to 169 °C |
| N#CCCNC(=O)c1cccc(-c2cccc(OC3CCCCC3)n2)c1 | 131 to 132 °C |
| O=C1CC(Cc2ccccc2Cl)CN1 (stereo not given) | 87 to 89 °C |
| CCC(=O)N[C@@H](C)C(=O)N[C@@H](C)C(=O)NC1CCCCC1 | 299 to 300 °C |
| Cc1onc2c1NC(=O)COC2(C)c1ccccc1 (stereo not given) | 177 to 178 °C |
| O=C(O)C(=O)C=Cc1ccccc1F | 100 to 102 °C |
| COc1ccc(N2CCN(C(=O)c3ccccc3C(c3ccc(O)cc3)c3ccc(O)cc3)CC2)cc1 | 208 to 210 °C |
| CC1CCN(c2nc(-c3ncccn3)cc(Cl)c2-c2c(F)cccc2Cl)CC1 | 129 °C |
| COc1ccc(S(=O)(=O)C2(CCCCCCCCCC#Cc3ccc(Cl)cc3)SC(=O)NC2=O)cc1 (stereo not given) | 114 to 121 °C |
| CCOC(=O)C1=C(N)N=C(OCC)C(C(=O)OCC)C1c1ccc(C)cc1 (stereo not given) | 119 °C |
| CC1(c2cccc(OCc3ccccc3)c2)C(=O)Nc2cc(Cl)cc(Cl)c2C1=O (stereo not given) | 201 to 203 °C |
| COC(=O)c1ccc(OS(=O)(=O)C(F)(F)F)c(C23CC4CC(CC(C4)C2)C3)c1 | 95 °C |

| SMILES | melting point |
| --- | --- |
| COC(=O)c1cccc(Oc2ccnc(Cl)c2)n1 | 89 °C |
| NCCNC(=O)Nc1ccccc1C(=O)NCC1CCN(C(c2ccccc2)c2ccccc2)CC1 | 101 to 103 °C |
| O=C(N1CCN(c2ccccc2)CC1)N1CCc2ccccc2CO1 | 123 to 125 °C |
| FC(F)(F)c1nc[nH]n1 | 89 °C |
| CCCNC(=O)c1ccc(-c2nc(=O)c3ccccc3s2)nc1 | 268 to 269 °C |
| Cc1nc2ccsc2c2ccccc12 | 74 to 76 °C |
| Cn1cc(C(N)=O)c(Nc2ccc(C#N)cc2F)cc1=O | 261 to 266 °C |
| CCOC(=O)c1[nH]c(C)c(C)c1CC | 95 to 97 °C |
| Cn1c(=O)c2ccsc2n(CC2CC2)c1=O | 75 to 77 °C |
| COc1cc(CBr)ccc1OC(=O)c1ccccc1 | 86 to 88 °C |
| CC(C)C(NC(=O)OCc1nccs1)C(=O)NC(Cc1ccccc1)C(O)C(Cc1ccccc1)NC(=O)C(NC(=O)OCc1nccs1)C(C)C (stereo not given) | 92 to 93 °C |
| CCCc1nc2c(N)nc3ccccc3c2n1OCC | 198 to 199 °C |
| Cc1cc(C)cc(CN(C)C(=O)C(Cc2c[nH]c3ccccc23)NC(=O)c2ccccc2)c1 (stereo not given) | 140 to 142 °C |
| O=c1c2cncc3cccc(c32)n2c([N+](=O)[O-])ccc12 | 192 °C |
| CCCn1c(=O)c(N=O)c(N)n(Cc2ccccc2)c1=O | 208 to 212 °C |
| O=C(Nc1cc2ncc(CN3CCCC3)cc2cc1N1CCCC1)c1ccc(Br)cc1 | 171 to 173 °C |
| CC1C(C#N)=C(N)OC2=C1C(=O)CC(c1cccc3ccccc13)C2 (stereo not given) | 204 to 206 °C |
| C[Si](C)(C)C1=C(c2ccccc2)C(c2ccccc2)=C([Si](C)(C)C)[Si]1(C)C | 100 °C |
| Cc1ccccc1Cc1ccc(=O)[nH]n1 | 156 to 157 °C |
| COc1cc(C(F)(F)F)cc(Cl)c1-n1nc(C#N)c(S(=O)C(F)(F)F)c1N (stereo not given) | 195 °C |
| O=C(Nc1ccc([N+](=O)[O-])cc1Cl)c1ccc(C(=O)Nc2ccc([N+](=O)[O-])cc2Cl)cc1 | 339 °C |
| COc1cc(OC)cc(C2(Cl)C(C)(C)C2(C)C)c1 | 119 to 121 °C |
| O=C1c2ccccc2C(=O)N1CCOc1ccncc1 | 157 to 158 °C |
| Nc1cc(C(=O)O)cc(OCc2ccccc2)c1C(=O)c1ccccc1 | 216 to 218 °C |
